Assay results from the NIST ThermoML archive (doi:10.1021/je5009119).

What was measured:
[1] = 101.33 kPa, Liquid; for viscosity: Capillary tube (Ostwald / Ubbelohde) method; for mass density: Pycnometric method
[2] = mn = molality of the nth substance listed, in mol/kg; details: 101 kPa, Liquid; for viscosity: Capillary tube (Ostwald / Ubbelohde) method; for mass density: Pycnometric method

OCCO [1,2-ethanediol]
[1]
Details | mass density [kg/m3] | viscosity [mPa·s]
298.15 K | – | 16.2
303.15 K | 1106.6 | 14.1
308.15 K | – | 11.6
313.15 K | 1099.3 | 9.75
318.15 K | – | 7.91

OCCO [1,2-ethanediol] + NC(N)=O
[2], m2 = 0
Details | mass density [kg/m3] | viscosity [mPa·s]
298.15 K | – | 16.2
303.15 K | 1106.6 | 14.1
308.15 K | – | 11.6
313.15 K | 1099.3 | 9.75
318.15 K | – | 7.91

NC(N)=O [urea] + OCCO
[2]
Details | mass density, 298.15 K [kg/m3] | mass density, 303.15 K [kg/m3] | mass density, 308.15 K [kg/m3] | mass density, 313.15 K [kg/m3] | mass density, 318.15 K [kg/m3] | viscosity, 298.15 K [mPa·s] | viscosity, 303.15 K [mPa·s] | viscosity, 308.15 K [mPa·s] | viscosity, 313.15 K [mPa·s] | viscosity, 318.15 K [mPa·s]
m1 = 0.877 | 1118.4 | 1114.8 | 1111.1 | 1107.8 | 1103.9 | 17 | 14.9 | 12.1 | 10.1 | 8.13
m1 = 1.852 | 1127.9 | 1124.4 | 1120.7 | 1117.4 | 1113.6 | 18.5 | 16 | 13 | 10.8 | 8.68
m1 = 2.939 | 1137.2 | 1133.7 | 1130 | 1126.8 | 1122.9 | 20.4 | 17.5 | 14.1 | 11.6 | 9.31
m1 = 4.162 | 1146.3 | 1142.9 | 1139.1 | 1135.9 | 1132.1 | 22.1 | 18.8 | 15.1 | 12.4 | 9.86
m1 = 5.549 | 1155.3 | 1151.9 | 1148.1 | 1144.9 | 1141 | 24 | 20.2 | 16.1 | 13.2 | 10.4
m1 = 7.137 | 1164.4 | 1161.1 | 1157.4 | 1154.1 | 1150.3 | 25.7 | 21.5 | 17.1 | 13.9 | 11
